23 compounds from patent US6610694B1, “Condensed pyridazine compounds, their production and use” (Takeda Chemical Industries, Ltd., priority 1998, dated 2003) can be followed below.

For data set [1], the system named is histamine-induced skin reactions in guinea pigs. Kind of data set: Effect on histamine-induced skin reactions in guinea pigs (skin vascular permeability). The format is in vivo, guinea pig. The note with it: oral 3 mg/kg, same manner as Experimental Example 1a, Table 3. Here is the method:
Effect on Histamine-induced Skin Reactions in Guinea Pigs
Male Hartley guinea pigs weighing about 500 g were used. After the dorsal hair was shaved under ether anesthesia, 1 ml of a 2.5% pontamine sky blue solution was injected intravenously administered, and then 0.1 ml of histamine at 3 μg/ml was injected intradermally into 2 sites (left and right) in the back. Thirty minutes after the injection of histamine, the animals were killed by bleeding and the skin was removed. Two perpendicular diameters (mm) of each blue spot on the inside of the skin were measured and multiplied; the mean for the two products was taken as the microvascular permeability index. Test compounds were suspended in a 5% gum arabic solution and orally administered in a volume of 0.2 ml/100 g body weight 1 hour before histamine administration. Animals in the control group received the same volume of a 5% gum arabic solution. The suppression rate of the sample for the title reaction was calculated using Equation 1, and the results are given in Table 1.
Inhibition (%) of histamine-induced skin reactions=100×(1−vascular permeability index in the presence of drug/vascular permeability index in control group) Equation 1
In the same manner as Experimental Example 1a, the effects of various example compounds on histamine-induced skin reactions in guinea pigs were examined.

In the next data set the test system is guinea pig eosinophils. Kind of data set: Suppression of LTB4-induced chemotactic reaction in guinea pig eosinophils. The format is cell-based. The note with it: LTB4-induced chemotaxis, same manner as Experimental Example 2a (1×10^−5 M); Table 4. On the procedure:
1) Preparation of Guinea Pig Eosinophils
To male Hartley guinea pigs, 2 ml of equine serum (Bio-Whittaker, Inc.) was intraperitoneally administered once weekly for 8 consecutive weeks. At 48 hours after final administration, 75 ml of physiological saline was intraperitoneally injected, after which the saline was recovered and centrifuged at 400×g for 5 minutes. The resulting sediment was suspended in 5 ml of Percoll solution (density (d)=1.07) and layered on top of the multiple layers of different densities of Percoll solution (density(d)=1.112, 5 ml; d=1.095, 10 ml; d=1.090, 10 ml; d=1.085, 5 ml), followed by centrifugation at 1,000×g for 25 minutes (20° C.). The cell layer formed at the interface between densities 1.112 and 1.095 was collected. Erythrocytes present in the collected cell sediment were removed by hypotonic treatment (suspended in water for […]).
The cell sediment was washed 3 times with Hanks' solution containing 10 mM Hepes (Dojin Kagaku) (Hanks-Hepes) and suspended in a Hanks-Hepes solution containing 2% human serum albumin (Wako Pure Chemical Industry or Sigma) (Hanks-Hepes-HSA) to a final concentration of 5.56×10^6 cells/ml. Eosinophil purity was 90%, viability being over 98%.
2) Determination of Chemotactic Reaction Suppression
To a 24-well petri dish, which serves as a lower chamber, 600 μl of Hanks-Hepes-HSA solution containing LTB4 (final concentration 10^−8 M, Cascade Biochemical Ltd.), was transferred, followed by incubation at 37° C. for 30 minutes in a carbon dioxide incubator. Separately, 200 μl of eosinophil suspension (5×10^6 cells/ml), previously incubated at 37 C for 15 minutes, was added to Chemotaxicell (polycarbonate membrane, pore size 3 μm, thickness 10 μm), which serves as an upper chamber, after the upper chamber was attached to the 24-well petri dish. After 2 hours of reaction in the CO2 incubator, the Chemotaxicell was removed; 60 μl of a 2% (w/v) solution of EDTA in physiological saline was added to the liquid in the lower chamber. After the mixture was on cooled ice, the cells migrating into the lower chamber were counted using a blood cell counter [Coulter Counter (trade name)]. The test drug, dissolved in N,N-dimethyl formamide (DMF), was added to both the upper and lower chambers to a final concentration of 10^-5 M.
Chemotactic reaction suppression rate=[1−(number of migrating cells in the presence of drug/number of migrating cells in the absence of drug).]×100 Equation 2
Suppression rates of LTB4-induced chemotactic reaction by test substances (1×10^−5 M) were calculated using the above equation.
In the same manner as Experimental Example 2a, the percent suppression of LTB4-induced chemotactic reactions by various example compounds was calculated.

Where a name gives a salt, the structure may show the parent alone.

By melting point is commonly meant the temperature, or range, at which the solid turns liquid. As to `CCOC(=O)C(C)(C)n1nc2ccc(OCCCN3CCC(OC(c4ccccc4)c4ccccc4)CC3)nn2c1=O.Cl`, the melting point was 129 °C.

As to `c1ccc(C(OC2CCN(CCCCCCOc3ccc4nncn4n3)CC2)c2ccccc2)cc1` (as salt: fumarate) [Example 7a, 6-[6-[4-(Diphenylmethoxy)piperidino]hexyloxy][1,2,4]triazolo[4,3-b]pyridazine Fumarate], the melting point was 144 to 146 °C.

As for `c1ccc(C(c2ccccc2)N2CCN(CCCOc3ccc4nncn4n3)CC2)cc1` [Example 1a, 6-[3-[4-(Diphenylmethyl)-1-piperazinyl]propoxy][1,2,4]triazolo[4,3-b]pyridazine], the melting point lay in the range of 132 to 134 °C.

`c1ccc(C(c2ccccc2)N2CCN(CCCSc3ccc4nncn4n3)CC2)cc1` [Example 2a, 6-[3-[4-(Diphenylmethyl)-1-piperazinyl]propylthio][1,2,4]triazolo[4,3-b]pyridazine]: the melting point was 143 to 144 °C.

As to `Cn1nc2ccc(OCCCN3CCC(OC(c4ccccc4)c4ccccc4)CC3)nn2c1=O` [Example 2b, 6-[3-[4-(Diphenylmethoxy)piperidino]propoxy]-2-methyl[1,2,4]triazolo[4,3-b]pyridazin-3(2H)-one], the melting point was 139 to 140 °C.

`O=c1[nH]nc2ccc(NCCCN3CCC(OC(c4ccccc4)c4ccccc4)CC3)nn12` [Example 3b, 6-[3-[4-(Diphenylmethoxy)piperidino]propylamino][1,2,4]triazolo[4,3-b]pyridazin-3(2H)-one] showed a melting point of 156 to 170 °C. Besides, the “Suppression (%) of histamine-induced skin vascular permeability elevation, oral administration at 3 mg/kg” value in data set [1] was found to be 94%.

The compound `c1ccc(C(OC2CCN(CCCNc3ccc4nncn4n3)CC2)c2ccccc2)cc1` [Example 4a, 6-[3-(4-(Diphenylmethoxy)piperidino]propylamino][1,2,4]triazolo[4,3-b]pyridazine] showed a melting point of 167 to 168 °C.

Turning to `O=c1[nH]nc2ccc(OCCCN3CCC(OC(c4ccccc4)c4ccccc4)CC3)nn12` [Example 4b, 6-[3-[4-(Diphenylmethoxy)piperidino]propoxy][1,2,4]triazolo[4,3-b]pyridazin-3(2H)-one], the melting point was 209 to 211 °C. For the same compound, the “Suppression (%) of histamine-induced skin vascular permeability elevation, oral administration at 3 mg/kg” value in data set [1] is given as 92%.

As to `CCOC(=O)Cn1nc2ccc(OCCCN3CCC(OC(c4ccccc4)c4ccccc4)CC3)nn2c1=O` [Example 5b, Ethyl 2-[6-[3-[4-(Diphenylmethoxy)piperidino]propoxy]-3-oxo[1,2,4]triazolo[4,3-b]pyridazin-2(3H)-yl]acetate], the melting point is 124 to 125 °C.

With `c1ccc(C(OC2CCN(CCOc3ccc4nncn4n3)CC2)c2ccccc2)cc1` [Example 6a, 6-(2-[4-(Diphenylmethoxy)piperidino]ethoxy][1,2,4]triazolo[4,3-b]pyridazine], the melting point fell in the range of 149 to 150 °C.

In the case of `CC(C)(C(=O)O)n1nc2ccc(NCCCN3CCC(OC(c4ccccc4)c4ccccc4)CC3)nn2c1=O` [Example 9b, 2-[6-[3-[4-(Diphenylmethoxy)piperidino]propylamino]-3-oxo[1,2,4]triazolo[4,3-b]pyridazin-2(3H)-yl]-2-methylpropionic Acid], the melting point lay in the range of 181 to 185 °C.

The compound `CC(C)(C)C(=O)OCn1nc2ccc(NCCCN3CCC(OC(c4ccccc4)c4ccccc4)CC3)nn2c1=O` [Example 10b, 6-[3-[4-(Diphenylmethoxy)piperidino]propylamino]-2-(pivaloyloxymethyl)[1,2,4]triazolo[4,3-b]pyridazin-3(2H)-one] gave a melting point of 168 to 171 °C. Besides, the “Suppression rate (%)” value in the data set with guinea pig eosinophils amounted to 55%.

`c1ccc(C(c2ccccc2)N2CCN(CCCCCCNc3ccc4nncn4n3)CC2)cc1` [Example 11a, 6-[6-[4-(Diphenylmethyl)-1-piperazinyl]hexylamino][1,2,4]triazolo[4,3-b]pyridazine] gave a melting point of 133 to 139 °C.

In the case of `CC(C)(C)C(=O)OCOC(=O)C(C)(C)n1nc2ccc(NCCCN3CCC(OC(c4ccccc4)c4ccccc4)CC3)nn2c1=O` [Example 11b, pivaloyloxymethyl 2-[6-[3-[4-(Diphenylmethoxy)piperidino]propylamino]-3-oxo[1,2,4]triazolo[4,3-b]pyridazin-2(3H)-yl]-2-methylpropionate], the melting point stood at 162 °C. For the same compound, in the data set on guinea pig eosinophils, the “Suppression rate (%)” value was 100%.

`OC(COc1ccc2nncn2n1)CN1CCN(C(c2ccccc2)c2ccccc2)CC1` (stereo not drawn) [Example 15a, 6-[3-[4-(Diphenylmethyl)-1-piperazinyl]-2-hydroxypropoxy][1,2,4]triazolo[4,3-b]pyridazine] had a melting point of 95 to 97 °C.

`CC(C)(C(=O)O)c1nnc2ccc(NCCCN3CCC(OC(c4ccccc4)c4ccccc4)CC3)nn12` [Example 19a, 2-[6-[3-[4-(Diphenylmethoxy)piperidino]propylamino][1,2,4]triazolo[4,3-b]pyridazin-3-yl]-2-methylpropionic Acid] yielded a melting point of 155 to 157 °C.

Compound `CCOC(=O)c1nnc2ccc(NCCCN3CCC(OC(c4ccccc4)c4ccccc4)CC3)nn12` [Example 21a, Ethyl 6-[3-[4-(Diphenylmethoxy)piperidino]propylamino][1,2,4]triazolo[4,3-b]pyridazine-3-carboxylate] yielded a melting point of 129 to 133 °C.

As to `CC(C)(C(N)=O)c1nnc2ccc(OCCCN3CCC(OC(c4ccccc4)c4ccccc4)CC3)nn12` [Example 23a, 2-[6-[3-[4-(Diphenylmethoxy)piperidino]propoxy][1,2,4]triazolo[4,3-b]pyridazin-3-yl]-2-methylpropionamide], the melting point was 133 to 136 °C.

Regarding `CCOC(=O)C(C)(C)NC(=O)c1nnc2ccc(NCCCN3CCC(OC(c4ccccc4)c4ccccc4)CC3)nn12` [Example 25a, N-[6-[3-[4-(Diphenylmethoxy)piperidino]propylamino][1,2,4]triazolo[4,3-b]pyridazine-3-carbonyl]-2,2-dimethylglycine Ethyl Ester], the melting point fell in the range of 165 to 167 °C.

As for `CC(C)(NC(=O)c1nnc2ccc(NCCCN3CCC(OC(c4ccccc4)c4ccccc4)CC3)nn12)C(=O)O` [Example 26a, N-[6-[3-[4-(Diphenylmethoxy)piperidino]propylamino][1,2,4]triazolo[4,3-b]pyridazine-3-carbonyl]-2,2-dimethylglycine], the melting point lay in the range of 191 to 193 °C.

In the case of `CC(C)(NC(=O)c1nnc2ccc(OCCCN3CCC(OC(c4ccccc4)c4ccccc4)CC3)nn12)C(=O)O` [Example 28a, N-[6-[3-[4-(Diphenylmethoxy)piperidino]propoxy][1,2,4]triazolo[4,3-b]pyridazine-3-carbonyl]-2,2-dimethylglycine], the melting point lay within 163 to 165 °C.

For the compound `CCOC(=O)CNC(=O)c1nnc2ccc(NCCCN3CCC(OC(c4ccccc4)c4ccccc4)CC3)nn12` [Example 29a, N-[6-[3-[4-(Diphenylmethoxy)piperidino]propylamino][1,2,4]triazolo[4,3-b]pyridazine-3-carbonyl]glycine ethyl ester], the melting point lay in the range of 152 to 155 °C.

In the case of `O=C(O)CNC(=O)c1nnc2ccc(NCCCN3CCC(OC(c4ccccc4)c4ccccc4)CC3)nn12` [Example 30a, N-[6-[3-[4-(Diphenylmethoxy)piperidino]propylamino][1,2,4]triazolo[4,3-b]pyridazine-3-carbonyl]glycine], the melting point lay in the range of 182 to 184 °C.
